From the NIST ThermoML archive (doi:10.1021/je020131a)
Several values for one entry are separate records, joined by “and”; a condition that tells them apart may be missing. Equal values may be shown once. Numbers after ± are expanded uncertainties.

Conditions: Liquid; for viscosity: 101.3 kPa, Falling or rolling sphere viscometry; for mass density: 101.33 kPa, Vibrating tube method

Structure (SMILES) | viscosity (293.15 K) [mPa·s] | viscosity (298.15 K) [mPa·s] | mass density (298.15 K) [kg/m3] | viscosity (303.15 K) | viscosity (313.15 K) [mPa·s]
CCCCCCC [heptane] | 0.411 ± 0.02 | 0.388 ± 0.02 | 679.4 ± 0.3 | 0.37 ± 0.02 mPa·s and 0.375 ± 0.02 mPa·s | 0.334 ± 0.02
CCCCCC [hexane] | 0.313 ± 0.02 | 0.301 ± 0.02 | 654.8 ± 0.3 | 0.282 ± 0.02 mPa·s | 0.258 ± 0.02
